From patent US11135192B2, “Inhibitors for treating diseases characterized by atrial enlargement or remodeling” (Novartis AG, priority 2012, dated 2021)

Experiments:
[1] = test system: patients with heart failure with preserved ejection fraction; test: Blood pressure change in the same HF-PEF study; type: in vivo, human; conditions: mean (SD)
Protocol: (§1) The primary study endpoint is the change from baseline in NT-proBNP assessed at 12 weeks, and is analyzed using the last observation after baseline carried forward. Secondary endpoints include changes in echocardiography measures (left ventricular volumes and ejection fraction, left atrial volume, measures of diastolic function), change in blood pressure, as well as change in New York Heart Association Class (NYHA) clinical composite assessment and quality of life (Kansas City Cardiomyopathy Questionnaire).
(§2) Echocardiography studies are performed at screening, randomization, at week 12, and week 36 or at end of study or early termination visits. Echocardiograms performed at screening are evaluated by local readers for qualifying information. All other echocardiograms are only performed in patients meeting NT-proBNP entry criterion and are evaluated centrally. For assessment of global ventricular size and function, left ventricular end-diastolic and end-systolic volumes are obtained utilizing the Simpson's rule method and left ventricular ejection fraction is derived in the usual fashion. Maximal left atrial dimension is measured in the parasternal long-axis view, and left atrial volume is assessed with the Simpson's rule method and indexed to body surface area. Measurements are made in triplicate in accordance with the recommendations of the American Society of Echocardiography. Blood pressure and heart rate are measured at all study visits with a calibrated standard sphygmomanometer and appropriate size cuff. The use of concomitant medication is recorded at each study visit.

[2] = test system: patients with heart failure with preserved ejection fraction; test: Plasma NT-proBNP in the 37-week randomized, double-blind study of LCZ696 compared to valsartan; type: in vivo, human; conditions: for NT-proBNP (pg/ml) at 12 weeks: 12 weeks / NT-proBNP (pg/ml) at 36 weeks: 36 weeks / NT-proBNP (pg/ml) at 12 weeks: Baseline / NT-proBNP (pg/ml) at 36 weeks: Baseline: geometric mean; for NT-proBNP (pg/ml) at 12 weeks: 12 weeks: after 12 weeks of treatment, target LCZ696 200 mg or valsartan 160 mg twice daily; for NT-proBNP (pg/ml) at 36 weeks: 36 weeks: after 36 weeks of treatment; for NT-proBNP (pg/ml) at 12 weeks: Baseline: baseline of patients analysed at 12 weeks; for NT-proBNP (pg/ml) at 36 weeks: Baseline: baseline of patients analysed at 36 weeks
Source text: Men and women aged 40 years or older with a left ventricular ejection fraction of 45% or above, and a documented history of heart failure with associated signs or symptoms (dyspnea on exertion, orthopnea, paroxysmal dyspnea, and peripheral edema) are eligible. Patients are required to have an NT-proBNP>400 pg/mL at screening, be on diuretic therapy, and have a systolic blood pressure less than 140 mm Hg, or 160 mm Hg or less if on three or more blood pressure medications at randomization. Additional inclusion criteria include an estimated glomerular filtration rate (eGFR) of at least 30 ml/min/1.73 m^2 at screening (calculated by the Modification of Diet in Renal Disease formula) and a potassium of no more than 5.2 mmol/L.
as §1

[3] = test system: patients with heart failure with preserved ejection fraction; test: Safety and tolerability (adverse events, target dose achieved) in the same HF-PEF study
[4] = test system: patients with heart failure with preserved ejection fraction; test: Echocardiography (left atrial and left ventricular measures) in the same HF-PEF study; type: in vivo, human
Protocol: as §1, §2

[5] = test system: patients with heart failure with preserved ejection fraction
Protocol: as §1
The clinical composite assessment is based on a composite of the NYHA functional classification, patient global assessment and major adverse clinical events. […] Patients are determined to be worse if at the endpoint visit they experienced a major adverse cardiac event during the double blind treatment or reported worsening of their NYHA class or patient global assessment. Patients are considered unchanged if they are neither improved nor worsened.

[6] = at 36 weeks, no unit printed in b206 (mm Hg)

Structure (SMILES)	diastolic blood pressure reduction ([1]; after 12 weeks of treatment)	systolic blood pressure reduction ([1]; after 12 weeks of treatment)	diastolic blood pressure reduction [1, 6]	systolic blood pressure reduction [1, 6]	NT-proBNP (pg/ml) at 12 weeks: 12 weeks [2]	NT-proBNP (pg/ml) at 36 weeks: 36 weeks [2]	NT-proBNP (pg/ml) at 12 weeks: Baseline [2]	NT-proBNP (pg/ml) at 36 weeks: Baseline [2]	LA Volume, Δ from Baseline ([4]; at 36 weeks)	LA dimension, Δ from Baseline ([4]; at 36 weeks)	Relative wall thickness, Δ from Baseline ([4]; at 36 weeks)	LA Volume, Baseline ([4]; baseline)	LA dimension, Baseline ([4]; baseline)	other results
CCCCC(=O)N(Cc1ccc(-c2ccccc2-c2nnn[nH]2)cc1)[C@H](C(=O)O)C(C)C [Valsartan, (S)—N-valeryl-N-{[2′-(1H-tetrazole-5-yl)-biphenyl-4-yl]-methyl}-valine, reference compound]	2.1 (11) mm Hg	2.9 (17) mm Hg	0.34 (11.5)	1.5 (18)	835 pg/mL	607 pg/mL	862 pg/mL	822 pg/mL	0.37 mL	−0.08 cm	+0.01%	68.28 mL	3.73 cm	deaths ([3]; among the serious adverse events): two; adverse event atrial fibrillation, number of patients ([3]; during the trial): 8 patients; adverse event atrial fibrillation, percent of patients ([3]; during the trial): 5.3%; one or more serious adverse events, number of patients ([3]; during the trial): 30 patients; one or more serious adverse events, percent of patients ([3]; during the trial): 20%; Angio-oedema, patients ([3]; the LCZ696 patient did not need admission to hospital): no patients; LA Volume Index, Δ from Baseline ([4]; at 36 weeks): 0.31 ml/m^2; LV mass index, Δ from Baseline ([4]; at 36 weeks): −1.93 g/m^2; LA Volume Index, Baseline ([4]; baseline): 36.80 ml/m^2; LV mass index, Baseline ([4]; baseline): 79.45 g/m^2
CCCCC(=O)N(Cc1ccc(-c2ccccc2-c2nnn[n-]2)cc1)C(C(=O)[O-])C(C)C.CCCCC(=O)N(Cc1ccc(-c2ccccc2-c2nnn[n-]2)cc1)C(C(=O)[O-])C(C)C.CCOC(=O)C(C)CC(Cc1ccc(-c2ccccc2)cc1)NC(=O)CCC(=O)[O-].CCOC(=O)C(C)CC(Cc1ccc(-c2ccccc2)cc1)NC(=O)CCC(=O)[O-].O.O.O.O.O.[Na+].[Na+].[Na+].[Na+].[Na+].[Na+] [LCZ696, trisodium [3-((1S,3R)-1-biphenyl-4-ylmethyl-3-ethoxycarbonyl-1-butylcarbamoyl) propionate-(S)-3′-methyl-2′-(pentanoyl(2″-(tetrazol-5-ylate)biphenyl-4′-ylmethyl)amino)butyrate]hemipentahydrate]	4.9 (10) mm Hg	9.3 (SD 14) mm Hg	5.1 (10.8)	7.5 (15)	605 pg/mL	496 pg/mL	783 pg/mL	763 pg/mL	-4.61 mL	−0.15 cm	+0.01%	65.26 mL	3.68 cm	reduction in NT-proBNP in patients with diabetes compared with patients without diabetes ([2]; 12 weeks, prespecified subgroup, interaction p=0.02): differentially greater reduction; reduction in NT-proBNP versus valsartan after adjustment for the change in blood pressure ([2]; 12 weeks, p=0.01): greater reduction; NT-proBNP versus baseline ([2]; 36 weeks): remained reduced from baseline; early reduction in NT-proBNP compared with the valsartan group ([2]; after 4 weeks of treatment, p=0.083): not significant; Left atrial volume (result in words) ([4]; after 36 weeks of treatment, p=0.003): reduced significantly; left atrial dimension (result in words) ([4]; after 36 weeks of treatment, p=0.034): reduced significantly; NYHA class improvement between groups ([5]; at 12 weeks, p=0.11): did not differ significantly; NYHA class compared with the valsartan group ([5]; at 36 weeks, p=0.05): improvement
